From US11338007B2, “Combination formulation of three antiviral compounds” (priority 2016, dated 2022)

Assays:
[1] = Chemical and physical stability of Formulation G film-coated tablets Lots A and B (Tables 11A, 11B); format: physicochemical
Method: In some embodiments, the film-coated tablets were packaged in 75 and 100 mL white HDPE bottles (Lots A and B, respectively, as described in Tables 11A, 11B) with 1 g silica gel desiccant canisters and a polyester fiber coil. The 75 and 100 mL HDPE bottles contained fourteen and twenty eight tablets, respectively. Each HDPE bottle was capped using a continuous thread, child-resistant polypropylene screw cap with an […], aluminum-faced line. The packaged tablets (14 and 28 counts) were evaluated for stability at 40° C./75% RH and 25° C./60% RH. Additionally, the 14-count bottles (without cap) were evaluated for stability under open conditions at 40° C./75% RH.

[2] = Tablet dissolution as a function of medium pH and composition (FIGS. 13-15); format: physicochemical; conditions: Formulation G tablets; independent of medium pH and composition
[3] = Stress studies: stability of tablets made with stressed VEL SSD/VOX SSD (water, residual solvent, peroxide, reprocessing, potency; Tables 16-21); format: physicochemical; conditions: for LS / Total Imp./Deg.: SSD water content study
Method: The impact of the following stressors on the physical and chemical stability of the sofosbuvir/velpatasvir SSD/voxilaprevir SSD tablets were evaluated:
(i) Voxilaprevir SSD and velpatasvir SSD, and sofosbuvir/velpatasvir SSD/voxilaprevir SSD tablet water content;
(ii) Copovidone peroxide content in velpatasvir SSD and in voxilaprevir SSD (iii) Reprocessed velpatasvir SSD and voxilaprevir SSD;
(iv) Voxilaprevir SSD and velpatasvir SSD potency (varying the ratio of velpatasvir or voxilaprevir to copovidone); and
(v) Seeding sofosbuvir/velpatasvir SSD/voxilaprevir SSD tablets with crystalline voxilaprevir Form VIII and Form X drug substances.

[4] = Food effect (high calorie/high-fat meals) on pharmacokinetics in human subjects (Table 28); format: in vivo; conditions: tablets 400/100/100 mg; high calorie/high-fat meal
Method: The effect of food (high calorie/high-fat meals) on the pharmacokinetics of sofosbuvir/velpatasvir SSD/voxilaprevir SSD tablets (400/100/100 mg). […] As a result, sofosbuvir/velpatasvir SSD/voxilaprevir SSD tablets are administered with food.

[5] = open (no desiccant), 40° C./75% RH, 4 weeks
[6] = tablets from SSDs with copovidone peroxides 544 ppm (VEL SSD), 655 ppm (VOX SSD), Initial, time 0
[7] = tablets from SSDs with copovidone peroxides 544 ppm (VEL SSD), 655 ppm (VOX SSD), closed, 1 g desiccant, 25° C./60% RH, 12 weeks
[8] = tablets from SSDs with copovidone peroxides 544 ppm (VEL SSD), 655 ppm (VOX SSD), closed, 1 g desiccant, 40° C./75% RH, 4 weeks
[9] = tablets from SSDs with copovidone peroxides 544 ppm (VEL SSD), 655 ppm (VOX SSD), closed, 1 g desiccant, 40° C./75% RH, 12 weeks
[10] = tablets from SSDs with copovidone peroxides 544 ppm (VEL SSD), 655 ppm (VOX SSD), open, no desiccant, 40° C./75% RH, 4 weeks
[11] = tablets from VEL SSD 6.0% residual ethanol, VOX SSD 2.1% residual acetone, Initial, time 0
[12] = tablets from VEL SSD 6.0% residual ethanol, VOX SSD 2.1% residual acetone, closed, 1 g desiccant, 25° C./60% RH, 12 weeks
[13] = tablets from VEL SSD 6.0% residual ethanol, VOX SSD 2.1% residual acetone, closed, 1 g desiccant, 40° C./75% RH, 4 weeks
[14] = tablets from VEL SSD 6.0% residual ethanol, VOX SSD 2.1% residual acetone, closed, 1 g desiccant, 40° C./75% RH, 12 weeks
[15] = tablets from VEL SSD 6.0% residual ethanol, VOX SSD 2.1% residual acetone, open, no desiccant, 40° C./75% RH, 4 weeks
[16] = tablets from VEL SSD 7.0% water, VOX SSD 3.2% water, Initial, time 0
[17] = tablets from VEL SSD 7.0% water, VOX SSD 3.2% water, closed, 1 g desiccant, 25° C./60% RH, 12 weeks
[18] = tablets from VEL SSD 7.0% water, VOX SSD 3.2% water, closed, 1 g desiccant, 40° C./75% RH, 4 weeks
[19] = tablets from VEL SSD 7.0% water, VOX SSD 3.2% water, closed, 1 g desiccant, 40° C./75% RH, 12 weeks
[20] = tablets from twice reprocessed VEL SSD and VOX SSD, Initial, time 0
[21] = tablets from twice reprocessed VEL SSD and VOX SSD, closed, 1 g desiccant, 25° C./60% RH, 12 weeks
[22] = tablets from twice reprocessed VEL SSD and VOX SSD, closed, 1 g desiccant, 40° C./75% RH, 4 weeks
[23] = tablets from twice reprocessed VEL SSD and VOX SSD, closed, 1 g desiccant, 40° C./75% RH, 12 weeks
[24] = tablets from twice reprocessed VEL SSD and VOX SSD, open, no desiccant, 40° C./75% RH, 4 weeks

## CC(C)OC(=O)C(C)N[P@](=O)(OC[C@H]1O[C@@H](n2ccc(=O)[nH]c2=O)[C@](C)(F)[C@@H]1O)Oc1ccccc1 (stereo in doubt) [sofosbuvir, (S)-isopropyl 2-(((S)-(((2R,3R,4R,5R)-5-(2,4-dioxo-3,4-dihydropyrimidin-1(2H)-yl)-4-fluoro-3-hydroxy-4-methyltetrahydrofuran-2-yl)methoxy)(phenoxy)phosphoryl)amino)propanoate]
[1]; Formulation G tablets, open conditions at 40° C./75% RH for 6 months
  total impurities/degradation products: 0.0%
[1]; Lot A (14 ct), 25° C./60% RH Closed, 1 month
  Total Imp./Deg.: 0.0%
[1]; Lot A (14 ct), 25° C./60% RH Closed, 3 months
  Total Imp./Deg.: 0.0%
[1]; Lot A (14 ct), 25° C./60% RH Closed, 6 months
  Total Imp./Deg.: 0.0%
[1]; Lot A (14 ct), 40° C./75% RH Closed, 1 month
  Total Imp./Deg.: 0.0%
[1]; Lot A (14 ct), 40° C./75% RH Closed, 3 months
  Total Imp./Deg.: 0.0%
[1]; Lot A (14 ct), 40° C./75% RH Closed, 6 months
  Total Imp./Deg.: 0.0%
[1]; Lot A (14 ct), 40° C./75% RH Open, 1 month
  Total Imp./Deg.: 0.0%
[1]; Lot A (14 ct), 40° C./75% RH Open, 3 months
  Total Imp./Deg.: 0.0%
[1]; Lot A (14 ct), 40° C./75% RH Open, 6 months
  Total Imp./Deg.: 0.0%
[1]; Lot A (14 ct), Initial
  Total Imp./Deg.: 0.0%
[1]; Lot B (28 ct), 25° C./60% RH Closed, 1 month
  Total Imp./Deg.: 0.0%
[1]; Lot B (28 ct), 25° C./60% RH Closed, 3 months
  Total Imp./Deg.: 0.0%
[1]; Lot B (28 ct), 25° C./60% RH Closed, 6 months
  Total Imp./Deg.: 0.0%
[1]; Lot B (28 ct), 40° C./75% RH Closed, 1 month
  Total Imp./Deg.: 0.0%
[1]; Lot B (28 ct), 40° C./75% RH Closed, 3 months
  Total Imp./Deg.: 0.0%
[1]; Lot B (28 ct), 40° C./75% RH Closed, 6 months
  Total Imp./Deg.: 0.0%
[1]; Lot B (28 ct), Initial
  Total Imp./Deg.: 0.0%
[1]; packaged Formulation G tablets, 40° C./75% RH and 25° C./60% RH for 6 months
  total impurities/degradation products: 0.0%
[2]
  dissolution complete within: ≤ 20 min
[3]; SSD potency study, tablet Lots A-D, all conditions
  total impurities/degradation products: 0.0%
[3]; Initial
  LS: 100.5%
  Total Imp./Deg.: 0.0%
[3]; [5]
  LS: 101.2%
  Total Imp./Deg.: 0.0%
[3]; tablets Lot A (super-potent VEL SSD, super-potent VOX SSD), Initial, time 0
  LS (%): 100.1%
[3]; tablets Lot A (super-potent VEL SSD, super-potent VOX SSD), closed, 1 g desiccant, 25° C./60% RH, 12 weeks
  LS (%): 99.0%
[3]; tablets Lot A (super-potent VEL SSD, super-potent VOX SSD), closed, 1 g desiccant, 40° C./75% RH, 4 weeks
  LS (%): 99.9%
[3]; tablets Lot A (super-potent VEL SSD, super-potent VOX SSD), closed, 1 g desiccant, 40° C./75% RH, 12 weeks
  LS (%): 99.8%
[3]; tablets Lot A (super-potent VEL SSD, super-potent VOX SSD), open, without cap, 40° C./75% RH, 4 weeks
  LS (%): 100.3%
[3]; tablets Lot B (sub-potent VEL SSD, sub-potent VOX SSD), Initial, time 0
  LS (%): 99.9%
[3]; tablets Lot B (sub-potent VEL SSD, sub-potent VOX SSD), closed, 1 g desiccant, 25° C./60% RH, 12 weeks
  LS (%): 99.4%
[3]; tablets Lot B (sub-potent VEL SSD, sub-potent VOX SSD), closed, 1 g desiccant, 40° C./75% RH, 4 weeks
  LS (%): 99.8%
[3]; tablets Lot B (sub-potent VEL SSD, sub-potent VOX SSD), closed, 1 g desiccant, 40° C./75% RH, 12 weeks
  LS (%): 98.7%
[3]; tablets Lot B (sub-potent VEL SSD, sub-potent VOX SSD), open, without cap, 40° C./75% RH, 4 weeks
  LS (%): 100.1%
[3]; tablets Lot C (sub-potent VEL SSD, super-potent VOX SSD), Initial, time 0
  LS (%): 99.5%
[3]; tablets Lot C (sub-potent VEL SSD, super-potent VOX SSD), closed, 1 g desiccant, 25° C./60% RH, 12 weeks
  LS (%): 99.6%
[3]; tablets Lot C (sub-potent VEL SSD, super-potent VOX SSD), closed, 1 g desiccant, 40° C./75% RH, 4 weeks
  LS (%): 99.6%
[3]; tablets Lot C (sub-potent VEL SSD, super-potent VOX SSD), closed, 1 g desiccant, 40° C./75% RH, 12 weeks
  LS (%): 99.1%
[3]; tablets Lot C (sub-potent VEL SSD, super-potent VOX SSD), open, without cap, 40° C./75% RH, 4 weeks
  LS (%): 99.4%
[3]; tablets Lot D (super-potent VEL SSD, sub-potent VOX SSD), Initial, time 0
  LS (%): 100.0%
[3]; tablets Lot D (super-potent VEL SSD, sub-potent VOX SSD), closed, 1 g desiccant, 25° C./60% RH, 12 weeks
  LS (%): 99.5%
[3]; tablets Lot D (super-potent VEL SSD, sub-potent VOX SSD), closed, 1 g desiccant, 40° C./75% RH, 4 weeks
  LS (%): 100.1%
[3]; tablets Lot D (super-potent VEL SSD, sub-potent VOX SSD), closed, 1 g desiccant, 40° C./75% RH, 12 weeks
  LS (%): 98.9%
[3]; tablets Lot D (super-potent VEL SSD, sub-potent VOX SSD), open, without cap, 40° C./75% RH, 4 weeks
  LS (%): 99.8%
[3]; tablets from SSDs with copovidone 544 ppm (VEL SSD) and 655 ppm (VOX SSD) peroxides
  total impurities/degradation products: 0.0%
[3]; [6]
  LS (%): 100.0%
  Total Imp./Deg. (%): 0.0%
[3]; [7]
  LS (%): 99.3%
  Total Imp./Deg. (%): 0.0%
[3]; [8]
  LS (%): 99.3%
  Total Imp./Deg. (%): 0.0%
[3]; [9]
  LS (%): 98.9%
  Total Imp./Deg. (%): 0.0%
[3]; [10]
  LS (%): 100.3%
  Total Imp./Deg. (%): 0.0%
[3]; tablets from VEL SSD 6.0% residual ethanol and VOX SSD 2.1% residual acetone, all conditions
  total impurities/degradation products: 0.0%
[3]; [11]
  LS (%): 101.2%
  Total Imp./Deg. (%): 0.0%
[3]; [12]
  LS (%): 100.5%
  Total Imp./Deg. (%): 0.0%
[3]; [13]
  LS (%): 101.5%
  Total Imp./Deg. (%): 0.0%
[3]; [14]
  LS (%): 100.9%
  Total Imp./Deg. (%): 0.0%
[3]; [15]
  LS (%): 100.9%
  Total Imp./Deg. (%): 0.0%
[3]; tablets from VEL SSD 7.0% and VOX SSD 3.2% water content, all conditions
  total impurities/degradation products: 0.0%
[3]; [16]
  LS (%): 100.5%
  Total Imp./Deg. (%): 0.0%
[3]; [17]
  LS (%): 99.9%
  Total Imp./Deg. (%): 0.0%
[3]; [18]
  LS (%): 101.6%
  Total Imp./Deg. (%): 0.0%
[3]; [19]
  LS (%): 100.4%
  Total Imp./Deg. (%): 0.0%
[3]; [20]
  LS (%): 100.7%
  Total Imp./Deg. (%): 0.0%
[3]; tablets from twice reprocessed VEL SSD and VOX SSD, all conditions
  total impurities/degradation products: 0.0%
[3]; [21]
  LS (%): 99.9%
  Total Imp./Deg. (%): 0.0%
[3]; [22]
  LS (%): 100.3%
  Total Imp./Deg. (%): 0.0%
[3]; [23]
  LS (%): 99.1%
  Total Imp./Deg. (%): 0.0%
[3]; [24]
  LS (%): 96.4%
  Total Imp./Deg. (%): 0.0%
[4]
  effect of food on plasma exposure: does not substantially alter
